Measurements taken from ChEMBL document CHEMBL1201862, “PubChem BioAssay data set” (2004).
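All cell lines were grown in 96-well plates and treated with compound for 48 hours. GI50 marks 50% less growth.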 Activity calls are given as the source filed them. No stated cut-off is given here; in the data, active = GI50 up to about 1.1 µM and inactive = higher.

How the values were obtained:
Assay in all cases: NCI-60 cell line screen, 48 h
786-0 = tested on: 786-0
HCC 2998 = tested on: HCC 2998
HCT-116 = tested on: HCT-116
HCT-15 = tested on: HCT-15
HOP-62 = tested on: HOP-62
HOP-92 = tested on: HOP-92
HT-29 = tested on: HT-29
LOX IMVI = tested on: LOX IMVI
MOLT-4 = tested on: MOLT-4
Malme-3M = tested on: Malme-3M
NCI-H23 = tested on: NCI-H23
NCI/ADR-RES = tested on: NCI/ADR-RES
SF-268 = tested on: SF-268
SF-295 = tested on: SF-295
SK-MEL-28 = tested on: SK-MEL-28
SK-MEL-2 = tested on: SK-MEL-2
SNB-75 = tested on: SNB-75
T47D = tested on: T47D
U-251 = tested on: U-251
UACC-62 = tested on: UACC-62

Row | Structure (SMILES) | GI50 (786-0) | GI50 (HCC 2998) | GI50 (HCT-116) | GI50 (HCT-15) [µM] | GI50 (HOP-62) | GI50 (HOP-92) | GI50 (HT-29) | GI50 (LOX IMVI) | GI50 (MOLT-4) | GI50 (Malme-3M) | GI50 (NCI-H23) | GI50 (NCI/ADR-RES) | GI50 (SF-268) | GI50 (SF-295) | GI50 (SK-MEL-28) | GI50 (SK-MEL-2) | GI50 (SNB-75) | GI50 (T47D) | GI50 (U-251) | GI50 (UACC-62)
1 | CN1CCN(CCCCNc2cc3c4ccccc4c(NCCCCN4CCN(C)CC4)cc3c3ccccc23)CC1 | 1.63 µM (inactive) | 1.81 µM (inactive) | 0.604 µM (active) | 1.34 | 3.59 µM (inactive) | 6.61 µM (inactive) | 1.95 µM (inactive) | 0.962 µM (active) | 0.41 µM (active) | 2.15 µM (inactive) | 2.09 µM (inactive) | 2.47 µM (inactive) | 1.9 µM (inactive) | 1.78 µM (inactive) | 7.67 µM (inactive) | 5.05 µM (inactive) | 3.38 µM (inactive) | 18.6 µM (inactive) | 1.68 µM (inactive) | 2.28 µM (inactive)
2 | Oc1c(C(O)(c2ccccc2)c2ccc3ccccc3c2O)ccc2ccccc12 | 20 µM (inactive) | 6.87 µM (inactive) | 7.76 µM (inactive) | 8.77 | 15 µM (inactive) | 9.1 µM (inactive) | 17 µM (inactive) | 10.3 µM (inactive) | 1.88 µM (inactive) | 11.8 µM (inactive) | 5.12 µM (inactive) | 13.2 µM (inactive) | 12.2 µM (inactive) | 16.5 µM (inactive) | 14.7 µM (inactive) | 12.4 µM (inactive) | 14.7 µM (inactive) | 2.96 µM (inactive) | 9.31 µM (inactive) | 10.6 µM (inactive)
3 | COc1cccc(/C=C/c2ccnc3ccccc23)c1OC | > 10 µM (inactive) | > 10 µM (inactive) | > 10 µM (inactive) | > 10 | > 10 µM (inactive) | 1.08 µM (active) | 9.86 µM (inactive) | 4.79 µM (inactive) | 3.89 µM (inactive) | > 10 µM (inactive) | 9.66 µM (inactive) | 2.67 µM (inactive) | > 10 µM (inactive) | > 10 µM (inactive) | > 10 µM (inactive) | > 10 µM (inactive) | > 10 µM (inactive) | 8.17 µM (inactive) | > 10 µM (inactive) | > 10 µM (inactive)
4 | Oc1ccc(Nc2nc(Cl)c3nc[nH]c3n2)cc1 | > 100 µM (inactive) | > 100 µM (inactive) | > 100 µM (inactive) | > 100 | > 100 µM (inactive) | 14 µM (inactive) | > 100 µM (inactive) | 63.5 µM (inactive) | > 100 µM (inactive) | > 100 µM (inactive) | > 100 µM (inactive) | > 100 µM (inactive) | > 100 µM (inactive) | > 100 µM (inactive) |  | 27.2 µM (inactive) | > 100 µM (inactive) | 61.9 µM (inactive) | > 100 µM (inactive) | > 100 µM (inactive)
5 | CCOc1ccc2nc(NC(=O)/C(CC(=O)CC(C3=C(O)c4ccccc4CC3=O)c3ccccc3)=N\O)sc2c1 (stereo unspecified) | > 100 µM (inactive) | > 100 µM (inactive) | > 100 µM (inactive) | > 100 |  | > 100 µM (inactive) | > 100 µM (inactive) | > 100 µM (inactive) | > 100 µM (inactive) | > 100 µM (inactive) | > 100 µM (inactive) | > 100 µM (inactive) | > 100 µM (inactive) | > 100 µM (inactive) | > 100 µM (inactive) | > 100 µM (inactive) | 52.1 µM (inactive) | > 100 µM (inactive) | > 100 µM (inactive) | > 100 µM (inactive)
6 | COc1ccc(C)cc1Nc1nnc(-c2ccc(N)cc2)s1 | 70.1 µM (inactive) | 44.7 µM (inactive) | 49.4 µM (inactive) | 69.2 | 51.8 µM (inactive) | > 100 µM (inactive) | 48.3 µM (inactive) | 39.4 µM (inactive) | 35.3 µM (inactive) | > 100 µM (inactive) | 88.1 µM (inactive) | > 100 µM (inactive) | > 100 µM (inactive) | 43.4 µM (inactive) | > 100 µM (inactive) | 63.1 µM (inactive) | > 100 µM (inactive) | 36.1 µM (inactive) |  | > 100 µM (inactive)
7 | NC(=O)CC1(O)C=CC(=O)C=C1 | > 100 µM (inactive) | > 100 µM (inactive) | > 100 µM (inactive) | > 100 | > 100 µM (inactive) | > 100 µM (inactive) | > 100 µM (inactive) | > 100 µM (inactive) | > 100 µM (inactive) | > 100 µM (inactive) | > 100 µM (inactive) | > 100 µM (inactive) |  | > 100 µM (inactive) | > 100 µM (inactive) | > 100 µM (inactive) | > 100 µM (inactive) | > 100 µM (inactive) | > 100 µM (inactive) | > 100 µM (inactive)
